The source made the active and inactive calls. The rule behind the calls is not given here.
Columns and labels:
[1] = tested on: Rattus norvegicus; experiment: Effect of compound on total full contralateral turns at the dose of 0.3 mg/Kg administered perorally in ungerstedt rat model; type: functional
[2] = tested on: Rattus norvegicus; experiment: Effect of compound on total full contralateral turns at the dose of 1.0 mg/Kg administered perorally in ungerstedt rat model; type: functional
[3] = tested on: Rattus norvegicus; experiment: Effect of compound on total full contralateral turns at the dose of 10 mg/Kg administered perorally in ungerstedt rat model; type: functional
[4] = target: D(2) dopamine receptor (Rattus norvegicus, UniProt P61169); experiment: In vitro binding affinity towards Dopamine receptor D2
D(2) dopamine receptor (Rattus norvegicus, UniProt P61169), sequence (P61169 whole entry): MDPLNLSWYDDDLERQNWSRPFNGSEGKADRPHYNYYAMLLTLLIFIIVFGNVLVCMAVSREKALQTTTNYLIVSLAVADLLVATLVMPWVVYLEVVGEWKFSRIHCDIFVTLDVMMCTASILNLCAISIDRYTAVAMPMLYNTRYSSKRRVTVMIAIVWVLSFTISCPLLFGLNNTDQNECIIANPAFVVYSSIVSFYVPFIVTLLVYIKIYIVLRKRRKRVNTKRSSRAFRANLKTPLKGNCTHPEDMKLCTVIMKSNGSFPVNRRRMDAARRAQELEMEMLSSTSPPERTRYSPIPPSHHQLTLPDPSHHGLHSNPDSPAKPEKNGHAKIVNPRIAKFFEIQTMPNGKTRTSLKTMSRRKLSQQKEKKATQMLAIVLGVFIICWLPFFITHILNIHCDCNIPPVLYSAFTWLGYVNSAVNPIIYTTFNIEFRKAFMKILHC

[5] = target: D(1A) dopamine receptor (Rattus norvegicus, UniProt P18901); experiment: In vitro binding affinity towards Dopamine receptor D1
D(1A) dopamine receptor, sequence (P18901 whole entry): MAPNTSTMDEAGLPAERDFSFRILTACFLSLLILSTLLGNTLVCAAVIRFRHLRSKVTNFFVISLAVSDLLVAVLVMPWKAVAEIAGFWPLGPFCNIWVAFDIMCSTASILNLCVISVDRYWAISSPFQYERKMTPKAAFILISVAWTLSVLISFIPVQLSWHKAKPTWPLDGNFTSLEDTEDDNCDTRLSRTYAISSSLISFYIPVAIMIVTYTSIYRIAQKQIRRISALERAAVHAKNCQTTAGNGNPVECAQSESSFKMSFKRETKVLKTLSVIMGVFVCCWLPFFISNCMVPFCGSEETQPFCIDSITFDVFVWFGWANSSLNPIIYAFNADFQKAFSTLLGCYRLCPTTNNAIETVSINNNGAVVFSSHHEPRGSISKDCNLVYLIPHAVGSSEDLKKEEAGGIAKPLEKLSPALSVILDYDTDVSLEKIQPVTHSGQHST

[6] = tested on: Rattus norvegicus; experiment: Effect of compound on total full contralateral turns at the dose of 10 mg/Kg administered perorally in ungerstedt rat model; […]; type: functional, organism-based
[7] = target: D(2) dopamine receptor (Homo sapiens, UniProt P14416); experiment: Tested for percent intrinsic activity towards Dopamine receptor D2 in CHO cells; type: cell-based
D(2) dopamine receptor (Homo sapiens, UniProt P14416), sequence (P14416 whole entry): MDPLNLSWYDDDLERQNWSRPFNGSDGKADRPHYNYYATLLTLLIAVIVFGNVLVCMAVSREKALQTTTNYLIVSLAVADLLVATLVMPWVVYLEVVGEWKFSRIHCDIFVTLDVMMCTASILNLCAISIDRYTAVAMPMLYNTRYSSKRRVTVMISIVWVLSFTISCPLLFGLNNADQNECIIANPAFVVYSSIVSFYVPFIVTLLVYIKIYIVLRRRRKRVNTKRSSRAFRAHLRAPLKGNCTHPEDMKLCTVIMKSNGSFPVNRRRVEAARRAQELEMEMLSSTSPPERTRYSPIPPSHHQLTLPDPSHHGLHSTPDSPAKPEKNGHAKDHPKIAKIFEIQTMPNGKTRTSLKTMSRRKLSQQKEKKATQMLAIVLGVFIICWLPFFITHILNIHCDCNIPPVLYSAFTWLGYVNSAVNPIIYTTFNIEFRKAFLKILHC

Compound	Turns [1]	Turns [2]	also measured
CCCN(CCC)C1CCC2=C(CCC/C2=N\OCC)C1 (stereo unspecified)	176	4217	–
CCCO/N=C1\CCCC2=C1CCC(N(CCC)CCC)C2 (stereo unspecified)	943	5406	–
CCCN(CCC)[C@H]1CCC2=C(CCC/C2=N\OC)C1	–	–	Turns [3]: 2014
CCCN(CCC)C1CCc2c(ccc(O)c2O)C1 (racemic)	–	–	Ki [4]: 3 nM; Ki [5]: 170 nM
CCCN(CCC)C1CCC2=C(CCC/C2=N\OC(=O)C(C)(C)C)C1 (stereo unspecified)	187	–	–
CCCN(CCC)[C@H]1CCC2=C(CCC/C2=N\OC(C)=O)C1	2007	–	–
CCCN(CCC)C1CCC2=C(CCC/C2=N\OC(C)=O)C1 (stereo unspecified)	365	–	–
CCCN(CCC)C1CCC2=C(CCC/C2=N\OC(=O)c2ccc(C)cc2)C1 (stereo unspecified)	–	–	Turns [6]: inactive
CCCN(CCC)C1CCC2=C(CCC/C2=N\OC(=O)C(C)C)C1 (stereo unspecified)	152	–	–
CCCN(CCC)C1CCC2=C(CCC/C2=N\OC(=O)c2ccccc2)C1 (stereo unspecified)	–	2208	–
CCCCO/N=C1\CCCC2=C1CCC(N(CCC)CCC)C2 (stereo unspecified)	–	1364	–
CCCN(CCC)C1CCC2=C(CCC/C2=N\OC)C1 (racemic)	1007	5295	Ki [4]: 2300 nM; EC50 [7]: > 1000 nM
CCCN(CCC)C1CCC2=C(CCC/C2=N\OC(C)(C)C)C1 (stereo unspecified)	–	2118	–
CCCN(CCC)C1CCC2=C(CCC/C2=N\OCc2ccccc2)C1 (stereo unspecified)	1652	4702	–

Source: ChEMBL document CHEMBL1144936, “Orally active oxime derivatives of the dopaminergic prodrug 6-(N,N-di-n-propylamino)-3,4,5,6,7,8-hexahydro-2H-naphthalen-1-one. Synthesis and pharmacological activity” (J Med Chem, 2003)
